Counter-ions that a name gives are not always drawn.
Tests used:
pan-HDAC = assay: In vitro enzyme inhibition assay - HDAC (HDAC-Glo I/II), pan-HDAC; format: biochemical
Experimental: 2. In Vitro Enzyme Inhibition Assay—HDAC
The effect of the compound on the enzymatic activity of pan-HDAC and two isoforms (HDAC1 and HDAC8) was examined using the HDAC-Glo I/II Assay and Screening System assay to assess the level of inhibition of HDAC protease activity and selectivity in each isoform. The proteins and detection reagents were from the HDAC-Glo™ I/II Assay and Screening System (Promega). A 1 mM stock solution of the compound was prepared in DMSO and diluted in a 5-fold gradient to create a series of 8 concentrations, and a specific volume of the highest concentration was diluted 25 times with HDAC Buffer to obtain 4× working solution of the compound. […] The 384-well plate was then read on a multifunctional microplate reader, with the Luminescence channel selected to record Luminescence values (RLU). The inhibition rate was calculated using the following formula: […]
(§1) Note: ‘Negative’ refers to the group without the inhibitor; ‘Blank’ refers to the group without the enzyme.
(§2) The IC50 value was calculated by fitting the inhibition rate by GraphPad Prism software, employing log (inhibitor) vs. response-Variable Slope (four parameters) model.

NCI-H1417 cells = assay: In vitro cell inhibition assay - H1417 cell proliferation (CellTiter-Glo); format: cell-based; conditions: Homo sapiens, NCI-H1417, H1417 small cell lung cancer cell proliferation
Experimental: 3. In Vitro Cell Inhibition Assay—H1417 Cell Proliferation
The inhibitory effect of the compounds on cell proliferation was assessed by detecting the number of viable cells using the CellTiter-Glo® reagent. […] The compounds were sequentially diluted in a 5-fold concentration gradient with DMSO to obtain 8 different concentrations o. These were diluted with BEGM (containing 10% FBS) cell culture medium to obtain the compound working solution (2×), which was added to the cell supernatant at 100 μL per well. The incubation continued for 7 days at 37° C., 5% CO2. The plate was then removed and equilibrated to room temperature (25° C.) along with the CellTiter-Glo® mixing reagent for 10-30 minutes. After centrifugation, 100 μL of the culture medium was carefully aspirated from each well, and 85 μL of CellTiter-Glo® reagent was added. The cells were thoroughly mixed with the CellTiter-Glo® mixing reagent using a microplate shaker for 2 min. and then incubated at room temperature for 10 min. The 96-well plate was subsequently placed on a multifunctional microplate reader to record the Luminescence values (RLU). • The inhibition rate was calculated using the following formula: […]
(§3) Note: ‘Negative’ refers to the group without inhibitors; ‘Blank’ refers to the group without cells.
(§4) The IC50 value was determined by fitting the inhibition rate by GraphPad Prism software.

LSD1 = LSD1 (Homo sapiens (Human), UniProt O60341); assay: In vitro enzyme inhibition assay - LSD1 (HTRF); format: biochemical
Experimental: 1. In Vitro Enzyme Inhibition Assay—LSD1
Initially, a master solution of 90 μM test compound (dissolved in DMSO) was prepared and sequentially diluted with DMSO in a 5-fold concentration gradient to yield a total of 9 concentrations of the compound working solution 1 (90×). Subsequently these 9 concentrations of working solution 1 were sequentially diluted by a 30-fold concentration gradient, i.e., 2 μL of working solution 1 was aspirated and added to 58 μL of Buffer, mixed on a vortex mixer with sufficient shaking to yield 9 concentrations of the screening test compound working solution 2 (3×). […] The mixture was incubated at room temperature for 15 minutes. […] Afterward, 2 μL of a termination solution (containing 5.4 mM 2-PCPA) was added to each well, mixed evenly, and incubated for another 15 minutes. Finally 4 μL of a pre-mixed antibody solution of Eu-anti H3K4 (PerkinElmer, TRF0404-D) and allophycocyanin (Prozyme, PJ27S) (1:1) was added to each well, mixed evenly, and incubated for 60 minutes. […] The inhibition rate was calculated through the following formula: […]
as §1, §2

NCI-H69 cells = assay: In vitro cell inhibition assay - NCI-H69 cell proliferation (CellTiter-Glo); format: cell-based; conditions: Homo sapiens, NCI-H69, H69 small cell lung cancer cell proliferation
Experimental: 4. In Vitro Cell Inhibition Assay—NCI-H69 Cell Proliferation
The inhibitory effect of the compounds on cell proliferation was assessed by detecting the number of viable cells using the CellTiter-Glo® reagent. NCI-H69 cells in the logarithmic growth phase were collected and inoculated into transparent bottom 96-well plates at a density 1×10^3 cells per well with 100 μL medium, and incubated at 37° C., 5% CO2 overnight. The compounds were sequentially diluted in a 5-fold concentration gradient with DMSO to obtain 8 different concentrations These were then diluted with RPMI-640 (containing 20% FBS) cell culture medium to obtain the compounds working solution (2×), which was added to the cell supernatant at 100 μL per well. The incubation continued for 7 days at 37° C., 5% CO2. The plate was then removed and equilibrated to room temperature (25° C.) along with the CellTiter-Glo® mixing reagent for 10-30 minutes. After centrifugation at 1200 rpm for 5 minutes, 120 μL of the culture medium was carefully aspirated from each well, and 60 μL of CellTiter-Glo® reagent was added. The cells were thoroughly mixed with the CellTiter-Glo® mixing reagent using a microplate shaker for 2 min. and then incubated at room temperature for 10 min. The 96-well plate was subsequently placed on a multifunctional microplate reader to record the Luminescence values (RLU).
The inhibition rate was calculated using the following formula: […]
as §3, §4

Compound	IC50 (pan-HDAC) [nM]	IC50 (NCI-H1417 cells) [nM]	IC50 (LSD1) [nM]	IC50 (NCI-H69 cells) [nM]
CC1(NCc2ccc(/C=C/C(=O)NO)cc2)CCN(c2ncc(-c3ccc(OC(F)(F)F)c(O)c3)c(-c3ccc(C#N)c(F)c3)c2C#N)CC1 [Example 214, (E)-3-(4-(((1-(3-Cyano-4-(4-cyano-3-fluorophenyl)-5-(3-hydroxy-4-(trifluoromethoxy)phenyl)pyridin-2-yl)-4-methylpiperidin-4-yl)amino)methyl)phenyl)-N-hydroxyacrylamide formate]	143	7.9	4.98	496
COc1ccc(-c2cnc(N3CCC(NCc4ccc(/C=C(\C)C(=O)NO)cc4)CC3)c(C#N)c2-c2ccc(C#N)c(F)c2)cc1O [Example 172, (E)-3-(4-(((1-(3-Cyano-4-(4-cyano-3-fluorophenyl)-5-(3-hydroxy-4-methoxyphenyl)pyridin-2-yl)piperidin-4-yl)amino)methyl)phenyl)-N-hydroxy-2-methylacrylamide formate]		1.71	0.74	1280
Cc1nc(N2CCC(N)CC2)c(C#N)c(-c2ccc(C#N)c(F)c2)c1-c1ccc(OCCCCCCC(=O)NO)c(O)c1 [Example 26, 7-(4-(6-(4-Aminopiperidin-1-yl)-5-cyano-4-(4-cyano-3-fluorophenyl)-2-methylpyridin-3-yl)-2-hydroxyphenoxy)-N-hydroxyheptanamide hydrochloride]	35	152	0.12	
O=C(/C=C/c1ccc(CNC(=O)c2cc(CN[C@@H]3C[C@H]3c3ccc(F)cc3)nc(-c3ccc(-n4cccn4)cc3)n2)cc1)NO [Example 232, 2-(4-(1H-pyrazol-1-yl)phenyl)-6-((((1R,2S)-2-(4-fluorophenyl)cyclopropyl)amino)methyl)-N-(4-((E)-3-(hydroxyamino)-3-oxoprop-1-en-1-yl)benzyl)pyrimidine-4-carboxamide formate]		32.1		160
COc1ccc(-c2c(-c3ccc(C#N)c(F)c3)nc(N3CCC(NCCCCCCC(=O)NO)CC3)n3ccnc23)cc1O [Example 35, 7-((1-(7-(4-Cyano-3-fluorophenyl)-8-(3-hydroxy-4-methoxy-phenyl)imidazo[1,2-c]pyrimidin-5-yl)piperidin-4-yl)amino)-N-hydroxy-heptanamide hydrochloride]	266	188	4.63	
N#Cc1ccc(-c2nc(N3CCC(N)CC3)cc(OCCCCCCC(=O)NO)c2-c2ccc(N)cc2)cc1F [Example 5, 7-(3-(4-Aminophenyl)-6-(4-aminopiperidin-1-yl)-2-(4-cyano-3-fluorophenyl)pyridin-4-yl)oxy)-N-hydroxyheptanamide hydrochloride]	15	128		
N#Cc1ccc(-c2nc(N3CCC(N)CC3)cc(OCCCCCCC(=O)NO)c2-c2ccc(F)c(F)c2)cc1F [Example 6, 7-(6-(4-Aminopiperidin-1-yl)-2-(4-cyano-3-fluorophenyl)-3-(3,4-difluorophenyl)pyridin-4-yl)oxy)-N-hydroxyheptanamide hydrochloride]	134		254	
COc1ccc(-c2cnc(N3CCC(NCc4ccc(OCC(=O)NO)nc4)CC3)c(C#N)c2-c2ccc(C#N)c(F)c2)cc1O [Example 174, 2-((5-(((1-(3-Cyano-4-(4-cyano-3-fluorophenyl)-5-(3-hydroxy-4-methoxyphenyl)pyridin-2-yl)piperidin-4-yl)amino)methyl)pyridin-2-yl)oxy)-N-hydroxyacetamide formate]		8.67		4170
COc1ccc(-c2cnc(N3CCC(NCc4ccc(C5=C(C(=O)NO)CCC5)cc4)CC3)c(C#N)c2-c2ccc(C#N)c(F)c2)cc1O [Example 163, 2-(4-(((1-(3-Cyano-4-(4-cyano-3-fluorophenyl)-5-(3-hydroxy-4-methoxyphenyl)pyridin-2-yl)piperidin-4-yl)amino)methyl)phenyl)-N-hydroxycyclopent-1-ene-1-carboxamide formate]		4.97		1400
COc1ccc(-c2cnc(N3CCC(NCc4ccc(C5CC5C(=O)NO)cc4)CC3)c(C#N)c2-c2ccc(C#N)c(F)c2)cc1O (centres unmarked) [Example 167, 2-(4-((1-(3-Cyano-4-(4-cyano-3-fluorophenyl)-5-(3-hydroxy-4-methoxyphenyl)pyridin-2-yl)piperidin-4-yl)amino)methyl) phenyl)-N-hydroxycyclopropane-1-carboxamide formate]		0.39	0.37	381
COc1ccc(-c2c(OCCCCCCC(=O)NO)cc(N3CCC(N)CC3)nc2-c2ccc(C#N)cc2)cc1O [Example 12, 7-((6-(4-Aminopiperidin-1-yl)-2-(4-cyanophenyl)-3-(3-hydroxy-4-methoxyphenyl)pyridin-4-yl)oxy)-N-hydroxyheptanamide]	7.31		0.92	
Cc1cc(-c2c(OCCCCCCC(=O)NO)cc(N3CCC(N)CC3)nc2-c2ccc(C#N)c(F)c2)ccn1 [Example 10, 7-((6-(4-Aminopiperidin-1-yl)-2-(4-cyano-3-fluorophenyl)-2′-methyl-[3,4′-bipyridin]-4-yl)oxy)-N-hydroxyheptanamide hydrochloride]	39		75.4	
CS(=O)(=O)c1ccc(-c2c(OCCCCCCC(=O)NO)cc(N3CCC(N)CC3)nc2-c2ccc(C#N)c(F)c2)cc1 [Example 4, 7-(6-(4-Aminopiperidin-1-yl)-2-(4-cyano-3-fluorophenyl)-3-(4-(methylsulfonyl)phenyl)pyridin-4-yl)oxy)-N-hydroxyheptanamide hydrochloride]	12	209	11.9	
COc1ccc(-c2c(OCCCCCCC(=O)NO)cc(N3CCC(N)CC3)nc2-c2ccc(C#N)c(F)c2)cc1F [Example 3, 7-(6-(4-Aminopiperidin-1-yl)-2-(4-cyano-3-fluorophenyl)-3-(3-fluoro-4-methoxyphenyl)pyridin-4-yl)oxy-N-hydroxyheptanamide hydrochloride]	29	226	13.7	
COc1ccc(-c2cnc(N3CCC(NCc4ccc(/C=C/CC(=O)NO)cc4)CC3)c(C#N)c2-c2ccc(C#N)c(F)c2)cc1O [Example 169, (E)-4-(4-(((1-(3-Cyano-4-(4-cyano-3-fluorophenyl)-5-(3-hydroxy-4-methoxyphenyl)pyridin-2-yl)piperidin-4-yl)amino)methyl)phenyl)-N-hydroxybut-3-enamide formate]		2.33		310
N#Cc1ccc(-c2nc(N3CCC(N)CC3)n3ccnc3c2-c2ccc(NC(=O)CCCCCCC(=O)NO)c(O)c2)cc1F [Example 57, N^1-(4-(5-(4-aminopiperidin-1-yl)-7-(4-cyano-3-fluorophenyl)imidazo[1,2-c]pyrimidin-8-yl)-2-hydroxyphenyl)-N^8-hydroxyoctanediamine diformate]	72	14.5	0.26	
